The values that follow come from patent US5773459A, “Urea- and thiourea-type compounds” (Sugen, Inc., priority 1995, dated 1998).

The test system of the test is HUV-EC-C cells (human umbilical vein endothelial cells). Put plainly: HUV-EC-C Flk-1 assay (3H-thymidine incorporation). Format: cell-based. To be noted: Endothelial cell. As for the experimental part: The HUV-EC-C Flk-1 assay can be performed as follows:
1. Wash and trypsinize HUV-EC-C cells (human umbilical vein endothelial cells, American Type Culture Collection; catalogue no. 1730-CRL). Wash with Dulbecco's phosphate-buffered saline (D-PBS; obtained from Gibco BRL; catalogue no. 14190-029) 2 times at about 1 ml/10 cm^2 of tissue culture flask. Trypsinize with 0.05% trypsin-EDTA in non-enzymatic cell dissociation solution (Sigma Chemical Company; catalogue no. C-1544). The 0.05% trypsin was made by diluting 0.25% trypsin/l mM EDTA (Gibco; catalogue no. 25200-049) in the cell dissociation solution. Trypsinize with about 1 ml/25-30 cm^2 of tissue culture flask for about 5 minutes at 37° C. After cells have detached from the flask, add an equal volume of D-PBS and transfer to a 50 ml sterile centrifuge tube (Fisher Scientific; catalogue no. 05-539-6).
2. Wash the cells with about 35 ml D-PBS in the 50 ml sterile centrifuge tube by adding the D-PBS, centrifuge for 10 minutes at approximately 200×g, aspirate the supernatant, and resuspend with 35 ml D-PBS. Repeat the wash two more times, resuspend the cells in about 1 ml assay medium/15 cm^2 of tissue culture flask. Assay medium consists of F12K medium (Gibco BRL; catalogue no. 21127-014)+0.5% heat-inactivated fetal bovine serum. […]
Background: Dividing cells build labelled thymidine or BrdU into new DNA.

Structures are written as SMILES. Read-outs that look alike come from different tables or passages of the source.

For `CC(C)S(=O)(=O)c1csc(NC(=O)Nc2ccc(C(C)(C)C)cc2)c1Cl` [Example Z1, N-[3-Chloro-4-(isopropylsulfonyl)thien-2-yl]-N'-(4-t-butylphenyl)urea], the IC50 (VEGF stimulated, read-out: GROWTH DATA: HUV-EC-C/VEGF) was determined as 2.9 µM and the IC50 (aFGF stimulated, read-out: GROWTH DATA: HUV-EC-C/aFGF) is 30 µM.
